Literature values, collected in patent US11571385B2, “Self-emulsifiable composition, production method therefor, nanoemulsion, and production method therefor” (Kewpie Corporation, priority 2017, dated 2023).

Conditions: solubility in water, Japanese Pharmacopoeia class

Row | Structure (SMILES) | solubility
1 | COc1ccc2c(c1)c(CC(=O)OCC(=O)O)c(C)n2C(=O)c1ccc(Cl)cc1 [Acemetacin, acemetacin] | almost not soluble
2 | COc1ccc2c(c1)c(CC(=O)O)c(C)n2C(=O)c1ccc(Cl)cc1 [Indomethacin, indomethacin] | almost not soluble
3 | C=CC[C@@H]1/C=C(\C)C[C@H](C)C[C@H](OC)[C@H]2O[C@@](O)(C(=O)C(=O)N3CCCC[C@H]3C(=O)O[C@H](/C(C)=C/[C@@H]3CC[C@@H](O)[C@H](OC)C3)[C@H](C)[C@@H](O)CC1=O)[C@H](C)C[C@@H]2OC [Tacrolimus, tacrolimus] | almost not soluble
